This note sets out measurements from US11505548B2, “Heterocyclic compounds and their use for treatment of helminthic infections and diseases” (Celgene Corporation, priority 2019, dated 2022).

A value given as a limit tells only on which side of the number the result lay.

This experiment has as its system Onchocerca gutturosa Adult Male Worms. Briefly: Onchocerciasis in vitro screening model, worm motility score. The experiment is classed as cell-based. The settings on record: Onchocerca gutturosa; Table 1 O. gutturosa; levels A/B/C; motility or MTT readout not specified; read-out: O. gutturosa activity level (IC50 or MED).
Take `CC(C)Oc1ccc(-c2nnc(Nc3cc(C(F)(F)F)c(C(C)C)cn3)o2)nc1` [Compound 154, 5-(5-isoprop-oxypyridin-2-yl)-N-(5-isopropyl-4-(trifluoro-methyl)pyridin-2-yl)-1,3,4-oxadiazol-2-amine]: the IC50 (commonly the concentration needed to halve the response being measured) lay in the range of 200 to 500 nM.

For `CC(C)Oc1ccc(-c2nsc(Nc3ncccc3N(C)C)n2)nn1` [Compound 155, N2-(3-(6-isopropoxy-pyridazin-3-yl)-1,2,4-thiadiazol-5-yl)-N3,N3-dimethyl-pyridine-2,3-diamine], the IC50 lay in the range of 500 to 5000 nM.

Regarding `CC(C)Oc1cnc(-c2nsc(Nc3ncccc3N(C)C)n2)cc1C(F)(F)F` [Compound 156, N2-(3-(5-isopropoxy-4-(trifluoromethyl)pyridin-2-yl)-1,2,4-thiadiazol-5-yl)-N3,N3-dimethyl-pyridine-2,3-diamine], the half-maximal inhibitory concentration (IC50) is under 200 nM.

With `CC(=O)N(C)c1cccnc1Nc1nc(-c2ccc(OC(C)C)cn2)ns1` [Compound 157, N-(2-(3-(5-isopropoxy-pyridin-2-yl)-1,2,4-thiadiazol-5-ylamino)pyridin-3-yl)-N-methyl-acetamide], the IC50 was 500 to 5000 nM.

Consider `COc1cnc(-c2nnc(Nc3ncccc3N(C)C)o2)cn1` [Compound 158, N2-(5-(5-methoxy-pyrazin-2-yl)-1,3,4-oxadiazol-2-yl)-N3,N3-dimethyl-pyridine-2,3-diamine], for which the half-inhibitory concentration (IC50) was 500 to 5000 nM.

For `CNc1cccnc1N(C)c1nc(-c2ccc(OC(C)C)cn2)ns1` [Compound 159, N2-(3-(5-isopropoxy-pyridin-2-yl)-1,2,4-thiadiazol-5-yl)-N2,N3-dimethyl-pyridine-2,3-diamine], the IC50 lay within 500 to 5000 nM.

For `CC(C)Oc1cnc(-c2nnc(Nc3ncccc3N(C)C)o2)cc1C(F)(F)F` [Compound 160, N2-(5-(5-isopropoxy-4-(trifluoromethyl)pyridin-2-yl)-1,3,4-oxadiazol-2-yl)-N3,N3-dimethyl-pyridine-2,3-diamine], the half-maximal inhibitory concentration (IC50) was 500 to 5000 nM.

As to `CC(=O)Nc1cccnc1Nc1nc(-c2ccc(OC(C)C)cn2)ns1` [Compound 161, N-(2-(3-(5-isopropoxy-pyridin-2-yl)-1,2,4-thiadiazol-5-ylamino)pyridin-3-yl)acetamide], the IC50 is 500 to 5000 nM.

Consider `CN(C)c1cccnc1Nc1nc(-c2cc3c(cn2)N(C)CC3)ns1` [Compound 162, N3,N3-dimethyl-N2-(3-(1-methyl-2,3-dihydro-1H-pyrrolo[2,3-c]pyridin-5-yl)-1,2,4-thiadiazol-5-yl)pyridine-2,3-diamine], for which the half-inhibitory concentration (IC50) was under 200 nM.

In the case of `CN1Cc2ccnc(-c3nsc(Nc4ncccc4N(C)C)n3)c2C1` [Compound 163, N3,N3-dimethyl-N2-(3-(2-methyl-2,3-dihydro-1H-pyrrolo[3,4-c]pyridin-4-yl)-1,2,4-thia-diazol-5-yl)pyridine-2,3-diamine], the IC50 was under 200 nM.

`CC(C)Oc1ccc(-c2nsc(Nc3ncccc3C(N)=O)n2)nc1` [Compound 164, 2-(3-(5-isoprop-oxypyridin-2-yl)-1,2,4-thiadiazol-5-ylamino) nicotinamide]: the IC50 lay within 500 to 5000 nM.

With `CC(C)Oc1ccc(-c2nsc(Nc3ncc(C(C)C)cc3C(F)(F)F)n2)nc1` [Compound 165, 3-(5-isopropoxy-pyridin-2-yl)-N-(5-isopropyl-3-(trifluoromethyl)pyridin-2-yl)-1,2,4-thiadiazol-5-amine], the concentration for half-maximal inhibition (IC50) is under 200 nM.

On to `COc1cc(C(C)C)cnc1Nc1nc(-c2ccc(OC(C)C)cn2)ns1` [Compound 166, 3-(5-isopropoxy-pyridin-2-yl)-N-(5-isopropyl-3-methoxypyridin-2-yl)-1,2,4-thiadiazol-5-amine], for which the half-inhibitory concentration (IC50) is under 200 nM.

On to `COc1cccnc1Nc1nc(-c2cc(C(F)(F)F)c(OC(C)C)cn2)ns1` [Compound 167, 3-(5-isopropoxy-4-(trifluoromethyl)pyridin-2-yl)-N-(3-methoxypyridin-2-yl)-1,2,4-thiadiazol-5-amine], for which the IC50 lay in the range of 200 to 500 nM.
